In US11261201B2 (priority 2018, dated 2022):
Converted amounts (≈) assume the structure as drawn. Counter-ions that a name gives are not always drawn. Like-named read-outs stand apart in the source and are kept apart here.

How the values were obtained:
H37RvMA = test: Tuberculosis Alamar Blue/Resazurin assay (MIC); type: cell-based; details: Mycobacterium tuberculosis, H37RV, read-out: WT H37Rv MTB Activity
E. coli = test: Gram negative MIC protocol (OD600, LB, 24 h); details: Escherichia coli
Experimental: (§1) Overnight bacterial cultures were grown in LB with no added antibiotics at 37° C. with shaking. A 1:1000 dilution of these cultures into LB was exposed to concentration gradients of compounds in 96-well plates (100 μL per well assay volume). Resulting plates were incubated at 37° C. for 24 h without shaking, and OD600 was measured at the end of the incubation. MICs were determined as the lowest concentrations at which OD600 remained at baseline.

A. baumannii = test: Gram negative MIC protocol (OD600, LB, 24 h); details: Acinetobacter baumannii
Experimental: as §1

[1] = read-out: MIC E. coli delta-TolC LB Media, E. coli delta-TolC strain, LB media, 24 h, OD600
[2] = read-out: MIC WT E. coli LB Media, wild-type E. coli, LB media, 24 h, OD600
[3] = read-out: MIC A. baumannii LB Media, A. baumannii, LB media, 24 h, OD600

| SMILES | MIC (H37RvMA) | MIC (E. coli; [1]) | MIC (E. coli; [2]) | MIC (A. baumannii; read-out: MIC A. baumannii LB Media) | MIC (H37RvMA; WT H37Rv MTB) | MIC (A. baumannii; [3]) |
| --- | --- | --- | --- | --- | --- | --- |
| C[Si](C)(C)c1ccccc1CNCCC1CCCCC1 [B341, 2-cyclohexyl-N-(2-(trimethylsilyl)-benzyl)ethanamine hydrochloride] | 150 µM | 7 µM | > 150 µM | > 150 µM | – | – |
| CC(CC1CCCCC1)NCc1ccccc1OCC(O)C(C)C (centres unmarked) [B342] | – | 4 µM (≈ 1.33 µg/mL) | 150 µM (≈ 50 µg/mL) | – | 91 µM (≈ 30.3 µg/mL) | 150 µM (≈ 50 µg/mL) |
| CC(CC1CCCCC1)NCc1ccccc1OCC(C)(C)O (centres unmarked) [B343] | – | 4 µM (≈ 1.28 µg/mL) | 150 µM (≈ 47.9 µg/mL) | – | > 150 µM | 150 µM (≈ 47.9 µg/mL) |
| CC(CC1CCCCC1)NCc1ccccc1OCCCN(C)C1CCCC1 (centres unmarked) [B344] | – | 91 µM (≈ 35.2 µg/mL) | 150 µM (≈ 58 µg/mL) | – | 150 µM (≈ 58 µg/mL) | 91 µM (≈ 35.2 µg/mL) |
| NS(=O)(=O)c1ccccc1CNCCC1CCCCC1 [B345] | – | 20 µM (≈ 5.93 µg/mL) | > 150 µM | – | > 150 µM | 33 µM (≈ 9.78 µg/mL) |
| CS(=O)(=O)Cc1ccccc1CNCCC1CCCCC1 [B346] | – | 4 µM (≈ 1.24 µg/mL) | > 150 µM | – | > 150 µM | 12 µM (≈ 3.71 µg/mL) |
| CC(CC1CCCCC1)NCc1ccccc1OCC(=O)N1CCNC1=O (centres unmarked) [B347] | – | 4 µM (≈ 1.49 µg/mL) | 150 µM (≈ 56 µg/mL) | – | > 150 µM | > 150 µM |
| Ic1cccc(CNCCC2CCCCC2)c1 [B348] | – | > 150 µM | > 150 µM | – | 150 µM (≈ 51.5 µg/mL) | > 150 µM |
| COC(=O)c1cccc(CNCCC2CCCCC2)c1 [B349] | – | > 150 µM | > 150 µM | – | > 150 µM | > 150 µM |
| COCc1cccc(CNCCC2CCCCC2)c1 [B350] | – | > 150 µM | > 150 µM | – | > 150 µM | > 150 µM |
| Clc1cccc(CNCCC2CCCCC2)c1 [B351] | – | > 150 µM | > 150 µM | – | > 150 µM | > 150 µM |
| c1cc(CNCCC2CCCCC2)c2[nH]ccc2c1 [B352] | – | 91 µM (≈ 23.3 µg/mL) | 91 µM (≈ 23.3 µg/mL) | – | 91 µM (≈ 23.3 µg/mL) | 150 µM (≈ 38.5 µg/mL) |
| COc1cccc(CNCCC2CCCCC2)c1 [B353] | – | > 150 µM | > 150 µM | – | > 150 µM | > 150 µM |
| c1cc(CNCCC2CCCCC2)c2sccc2c1 [B354] | – | 150 µM (≈ 41 µg/mL) | > 150 µM | – | 150 µM (≈ 41 µg/mL) | > 150 µM |
| NCc1cccc(CNCCC2CCCCC2)c1 [B355] | – | > 150 µM | > 150 µM | – | > 150 µM | > 150 µM |
| Oc1cccc(CNCCC2CCCCC2)c1 [B356] | – | > 150 µM | > 150 µM | – | > 150 µM | > 150 µM |
| c1cc(CNCCC2CCCCC2)c2cc[nH]c2c1 [B357] | – | 20 µM (≈ 5.13 µg/mL) | 150 µM (≈ 38.5 µg/mL) | – | 91 µM (≈ 23.3 µg/mL) | 91 µM (≈ 23.3 µg/mL) |
| CC(C)NC(=O)COc1ccccc1CNC(C)CC1CCCCC1 (centres unmarked) [B358] | – | 20 µM (≈ 6.93 µg/mL) | > 150 µM | – | > 150 µM | > 150 µM |
| C#CCNC(=O)COc1ccccc1CNC(C)CC1CCCCC1 (centres unmarked) [B359] | – | 12 µM (≈ 4.11 µg/mL) | > 150 µM | – | > 150 µM | 150 µM (≈ 51.4 µg/mL) |
| c1ccc(CNCCC2CCCCN2)cc1 (centres unmarked) [B360] | – | > 150 µM | > 150 µM | – | > 150 µM | > 150 µM |
| CC(O)COc1ccccc1CNC(C)CC1CCCCC1 (centres unmarked) [B361] | – | 4 µM (≈ 1.22 µg/mL) | 91 µM (≈ 27.8 µg/mL) | – | > 150 µM | 91 µM (≈ 27.8 µg/mL) |
| COC(=O)COc1ccccc1CNC(C)CC1CCCCC1 (centres unmarked) [B362] | – | 7 µM (≈ 2.24 µg/mL) | 150 µM (≈ 47.9 µg/mL) | – | > 150 µM | 150 µM (≈ 47.9 µg/mL) |
| CC(O)CCOc1ccccc1CNC(C)CC1CCCCC1 (centres unmarked) [B363] | – | 3 µM (≈ 0.958 µg/mL) | 150 µM (≈ 47.9 µg/mL) | – | > 150 µM | 150 µM (≈ 47.9 µg/mL) |
| CSCCCOc1ccccc1CNC(C)CC1CCCCC1 (centres unmarked) [B364] | – | 3 µM (≈ 1.01 µg/mL) | 150 µM (≈ 50.3 µg/mL) | – | 91 µM (≈ 30.5 µg/mL) | 150 µM (≈ 50.3 µg/mL) |
| CCOC(=O)COCCOc1ccccc1CNC(C)CC1CCCCC1 (centres unmarked) [B365] | – | 5 µM (≈ 1.89 µg/mL) | > 150 µM | – | > 150 µM | > 150 µM |
| Nc1cccc(CNCCC2CCCCC2)c1 [B366] | – | 150 µM (≈ 34.9 µg/mL) | 150 µM (≈ 34.9 µg/mL) | – | > 150 µM | > 150 µM |
